Some test systems named below: 786-0; ACHN; BT-549; CAKI-1; HCT-15; HL-60; KM12; LOX IMVI; M14; MOLT-4; NCI-H226; NCI-H522; OVCAR-8; PC-3; RPMI-8226; RXF 393; SF-295; T47D; UACC-257; UO-31.
Assay in all cases: NCI tumour cell line growth inhibition, 48 h

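Step 1: Grow cells in 96-well plates. Step 2: Expose to compound for 48 hours at 5 concentrations. Step 3: Interpolate endpoints linearly; if unreached, use highest concentration. GI50 is the concentration that inhibits growth by half.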 Activity calls are given as the source filed them. No stated cut-off is given here; in the data, active = GI50 up to about 1.1 µM and inactive = higher.

Take `O=C(Nc1c(C(F)(F)F)cc(-c2ccccc2)[nH]c1=O)N1CCOCC1`: the GI50 with 786-0 is > 100 µM (inactive); in the assay with ACHN it was > 100 µM (inactive); with BT-549 it was > 100 µM (inactive); with CAKI-1 it was > 100 µM (inactive); in the assay with HCT-15, more than 100 µM; with HL-60, 26.9 µM (inactive). The GI50 in the assay with KM12 was > 100 µM (inactive); with LOX IMVI, > 100 µM (inactive); in the assay on M14, > 100 µM (inactive); with MOLT-4, > 100 µM (inactive); with NCI-H226 it was > 100 µM (inactive); in the assay with NCI-H522, 89.1 µM (inactive). For the same compound, the GI50 was > 100 µM (inactive) in the assay with OVCAR-8; > 100 µM (inactive) with PC-3; 26.9 µM (inactive) with RPMI-8226; > 100 µM (inactive) with RXF 393; 62.1 µM (inactive) with SF-295; > 100 µM (inactive) in the assay with T47D. The GI50 in the assay on UACC-257 was 78.3 µM (inactive); with UO-31, > 100 µM (inactive).
